{"source": "patent US20110270212A1", "about": "“PHARMACOKINETIC CONTROL FOR OPTIMIZED INTERFERON DELIVERY” (MEDTRONIC, INC., priority 2007, published 2011)", "origin": "cited, not measured here", "key": {"HCV [1]": {"tested_on": "HCV", "conditions": "oral doses up to 4500 mg"}, "HCV [2]": {"tested_on": "HCV", "conditions": "in vivo"}, "HCV [3]": {"tested_on": "HCV", "conditions": "across all dosing arms"}, "[4]": {"tested_on": "Hepatitis C virus replication (replicon model)", "conditions": "via protease inhibition"}, "HCV [5]": {"tested_on": "HCV", "conditions": "ribavirin combined with interferon-α, genotype 1 population"}, "[6]": {"conditions": "subcutaneously"}}, "data": [{"compound": "[N-]=[N+]=N[C@]1(CO)O[C@@H](n2ccc(N)nc2=O)[C@H](O)[C@@H]1O", "note": "[R1626, 4′-azidocytidine]", "values": [{"measurement": "tolerability", "setting": "HCV [1]", "result": "generally well-tolerated with increasing adverse events at the highest dose"}, {"measurement": "response with pegylated interferon/ribavirin", "setting": "HCV [2]", "result": "good response"}]}, {"compound": "CC(C)C(=O)OC[C@H]1O[C@@H](n2ccc(N)nc2=O)[C@](C)(F)[C@@H]1OC(=O)C(C)C", "note": "[R71278]", "values": [{"measurement": "antiviral activity", "setting": "HCV [3]", "result": "dose-dependent antiviral activity"}]}, {"compound": "COc1ccc2c(O[C@@H]3C[C@H]4C(=O)N[C@]5(C(=O)NS(=O)(=O)C6CC6)C[C@H]5/C=C\\CCCCN(C)C(=O)[C@@H]4C3)cc(-c3nc(C(C)C)cs3)nc2c1C", "note": "[TMC435350]", "values": [{"measurement": "Hepatitis C virus replication in replicon experiments", "setting": "[4]", "result": "reduce the amount of Hepatitis C virus replication"}]}, {"compound": "NC(=O)c1ncn([C@@H]2O[C@H](CO)[C@@H](O)[C@H]2O)n1", "note": "[ribavirin, 1-β-D-ribofuranosyl-1H-1,2,4-triazole-3-carboxamide]", "values": [{"measurement": "therapeutic effectiveness of the combination", "setting": "HCV [5]", "result": 29, "unit": "%"}]}, {"compound": "interferon-α", "values": [{"measurement": "dose administered without adverse reactions", "setting": "[6]", "result": "up to 300 million IU/m^2"}]}]}
